This is an account of results in ChEMBL document CHEMBL1125405, “Synthesis of alkoxy-substituted diaryl compounds and correlation of ring separation with inhibition of tubulin polymerization: differential enhancement of inhibitory effects under suboptimal polymerization reaction conditions” (J Med Chem, 1992).

Assay [1] deals with T1, Tubulin (Bos taurus, UniProt Q6B856+Q862L2+Q862F3). Nature of the assay: Concentration required to inhibit the extent of glutamate-dependent tubulin polymerization by 50% at 37 degrees C(1.0 mM MgCl2). The format is functional.
A further assay relates to HL-60. Nature of the assay: Cytotoxicity of compound against HL-60 human leukemia cells. The format is functional, cell-based.
Assay [2] has as its target T1, Tubulin. The assay can be described thus: Inhibition of glutamate-dependent tubulin polymerization at 30 degrees C(0.25 mM MgCl2). The format is functional.
Assay [3] deals with L1210. The assay can be described thus: Compound was tested for the inhibition of murine L1210 leukemia cells growth by 50%. The format is functional, cell-based. The following applies: Mus musculus.
Assay [4] deals with L1210. Nature of the assay: Compound was tested for the inhibition of L1210 leukemia cells growth […]. The format is functional, cell-based. The following applies: Mus musculus.

SMILES strings stand for the structures.

With `COc1ccc(Cc2cc(OC)c(OC)c(OC)c2)cc1O`, the IC50 on Tubulin [1] is 7700 nM; with HL-60 it was 100 nM; against Tubulin [2], 2300 nM; in the assay on L1210 [3], 200 nM.
For the compound `COc1ccc(CCCCc2cc(OC)c(OC)c(OC)c2)cc1O`, the results for the IC50 against Tubulin [1] and on Tubulin [2] were 30000 nM and 4400 nM, respectively.
For `CCOc1cc2c(cc1C(C)c1ccc(OC)cc1)OCO2` (stereo not given), the IC50 against Tubulin [2] was determined as 1800 nM.
Still for that read-out and setting: the value for `COc1ccc(CCCCc2cc3c(cc2OC)OCO3)cc1` was 7500 nM.
In the case of `COc1ccc(CCCc2cc(OC)c(OC)c(OC)c2)cc1O`, the IC50 against Tubulin [1] came out at 11000 nM; in the assay with HL-60, 300 nM; at Tubulin [2], 3000 nM; in the assay on L1210 [3], 400 nM.
`COc1ccc(-c2cc(OC)c(OC)c(OC)c2)cc1O`: the IC50 at Tubulin [1] and at Tubulin [2] was above 40000 nM in each case.
In the case of `COc1ccc(Cc2cc3c(cc2OC)OCO3)cc1`, at Tubulin [2], the IC50 came out at 5400 nM.
Turning to `COc1c(-c2ccc(OC)c(=O)cc2)ccc(C=O)c1C=O`, the results for the IC50 against Tubulin [1] and on Tubulin [2] were 2600 nM and 1200 nM, respectively.
In the case of `COc1ccc(CCc2cc(OC)c(OC)c(OC)c2)cc1O`, the IC50 with L1210 [4] is 70 nM; at Tubulin [1], 3500 nM; in the assay on HL-60, 50 nM; on Tubulin [2] it was 1600 nM.
Take `COc1ccc(/C=C/Cc2cc3c(cc2OC)OCO3)cc1`: the IC50 against Tubulin [2] stood at 3900 nM.
Same read-out and setting: as for `CCOc1cc2c(cc1C/C=C/c1ccc(OC)cc1)OCO2`, the figure is 1900 nM; as for `CCOc1cc2c(cc1/C=C\c1ccc(OC)cc1)OCO2`, above 40000 nM; as for `COc1ccc(CCCc2cc3c(cc2OC)OCO3)cc1`, 3800 nM.
The same measure, in the same setting: the value for `COc1ccc(C(C)c2cc3c(cc2OC)OCO3)cc1` (stereo not given) was 2500 nM.
Same read-out and setting: as for `COc1ccc(CCc2cc3c(cc2OC)OCO3)cc1`, the figure is 8800 nM; as for `CCOc1cc2c(cc1CCc1ccc(OC)cc1)OCO2`, 3800 nM.
Consider `CCOc1cc2c(cc1Cc1ccc(OC)cc1)OCO2`, for which, on Tubulin [2], the IC50 was found to be 2000 nM.
The same measure, in the same setting: the value for `CCOc1cc2c(cc1CCCc1ccc(OC)cc1)OCO2` was 2700 nM.

By IC50 is commonly meant the concentration that inhibits the measured activity by half. Higher therefore signals weaker potency.
